Measurements from patent US20190183890A1, “METHODS AND COMPOSITIONS FOR PROMOTING HAIR GROWTH” (Rophe Pharma, Inc., priority 2016, published 2019).

Key:
androgenic alopecia [1] = conditions: topical
androgenic alopecia [2] = tested on: androgenic alopecia

Cl.NNc1nncc2ccccc12 [hydralazine, 1-hydrazinophthalazine monohydrochloride]
hair regrowth (androgenic alopecia [1]; 0.2% solution in glycol, alcohol and water, over 200 patients, mostly androgenic alopecia): hair grew back
time until hair growth visible (androgenic alopecia [1]; 0.2% solution, treatment has to be continued every month to sustain the hair): visible after the first month
men with visible enhancement in hair count and hair thickness (androgenic alopecia [2]; 12 men aged 33-69 years, 150, then 300, then 600 mg/100 ml, after 6-8 weeks of treatment): 11 out of the 12
treatment time to visible enhancement in hair count and hair thickness (androgenic alopecia [2]; 12 men, 150 to 600 mg/100 ml): 6-8 weeks
onset of effect compared with Rogaine (androgenic alopecia [2]; 12 men, visible enhancement after 6-8 weeks): much faster onset of effect than Rogaine
